The values that follow come from publication PMC9805530 (European journal of medicinal chemistry, 2022).

Each structure is given as a SMILES string.

In assay [1] the target is T1, Sirt3 (Homo sapiens, UniProt Q9NTG7).
T1 sequence (Q9NTG7 1-399): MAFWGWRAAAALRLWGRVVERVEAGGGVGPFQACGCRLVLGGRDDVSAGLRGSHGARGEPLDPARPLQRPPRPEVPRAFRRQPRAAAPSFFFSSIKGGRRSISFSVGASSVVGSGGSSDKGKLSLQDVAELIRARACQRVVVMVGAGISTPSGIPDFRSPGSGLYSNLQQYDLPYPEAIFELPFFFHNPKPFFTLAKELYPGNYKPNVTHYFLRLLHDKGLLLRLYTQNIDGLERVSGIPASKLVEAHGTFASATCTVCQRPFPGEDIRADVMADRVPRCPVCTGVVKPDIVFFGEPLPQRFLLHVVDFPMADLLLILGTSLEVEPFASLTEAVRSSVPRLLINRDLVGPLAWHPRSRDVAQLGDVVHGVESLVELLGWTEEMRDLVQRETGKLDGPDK
As to conditions: cited from earlier work.

The next assay concerns BV2 cells. Kind of assay: LPS-induced inflammatory gene mRNA expression. As to conditions: 30 μM pretreatment 30 minutes, 100 ng/mL LPS 6 hours.
Assay [2] has as its target T2, Sirt2 (Homo sapiens, UniProt Q8IXJ6).
T2 sequence (Q8IXJ6 1-389): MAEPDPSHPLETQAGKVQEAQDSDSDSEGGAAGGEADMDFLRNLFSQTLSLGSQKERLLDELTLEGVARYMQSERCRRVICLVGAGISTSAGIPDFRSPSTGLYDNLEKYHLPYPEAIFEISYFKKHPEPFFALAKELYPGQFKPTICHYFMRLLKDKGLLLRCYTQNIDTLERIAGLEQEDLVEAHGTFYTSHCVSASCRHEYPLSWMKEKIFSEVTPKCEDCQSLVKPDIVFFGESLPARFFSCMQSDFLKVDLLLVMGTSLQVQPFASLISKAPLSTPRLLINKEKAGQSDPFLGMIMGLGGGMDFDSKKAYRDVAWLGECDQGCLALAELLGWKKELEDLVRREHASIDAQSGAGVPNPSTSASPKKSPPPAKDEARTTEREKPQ
As to conditions: cited from earlier work.

Assay [3] deals with T3, Sirt1 (Homo sapiens, UniProt Q96EB6).
T3 sequence (Q96EB6 1-747): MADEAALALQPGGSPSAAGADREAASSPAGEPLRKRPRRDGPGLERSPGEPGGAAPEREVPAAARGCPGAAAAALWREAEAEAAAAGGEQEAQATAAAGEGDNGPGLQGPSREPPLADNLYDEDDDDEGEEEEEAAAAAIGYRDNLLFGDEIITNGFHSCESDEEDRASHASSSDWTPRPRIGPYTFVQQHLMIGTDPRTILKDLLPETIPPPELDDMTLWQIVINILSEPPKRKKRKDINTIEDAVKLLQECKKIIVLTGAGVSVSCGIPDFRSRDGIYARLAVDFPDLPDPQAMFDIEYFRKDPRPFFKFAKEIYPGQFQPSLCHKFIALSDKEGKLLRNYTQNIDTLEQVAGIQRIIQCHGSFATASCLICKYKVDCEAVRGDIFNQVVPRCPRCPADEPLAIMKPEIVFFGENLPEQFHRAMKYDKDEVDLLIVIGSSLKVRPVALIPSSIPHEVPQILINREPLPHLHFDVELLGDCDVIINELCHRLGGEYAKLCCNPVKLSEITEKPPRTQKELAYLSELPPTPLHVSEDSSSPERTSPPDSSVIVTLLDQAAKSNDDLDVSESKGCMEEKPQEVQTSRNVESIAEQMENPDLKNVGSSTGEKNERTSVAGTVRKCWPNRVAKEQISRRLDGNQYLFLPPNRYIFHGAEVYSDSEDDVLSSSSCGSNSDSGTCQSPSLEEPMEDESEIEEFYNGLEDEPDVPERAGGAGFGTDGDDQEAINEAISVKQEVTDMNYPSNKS
As to conditions: cited from earlier work.

The target of assay [4] is T4, Sirt6 (Homo sapiens, UniProt Q8N6T7). Format: biochemical. To be noted: 100 μM, 30 °C, 60 minutes.
For assay [5], the target named is T1, Sirt3. The assay is described as follows: Sirt3 deacetylation Activity Assay Kit. To be noted: time course, Fig. 3.
Assay [6] deals with T4, Sirt6. Kind of assay: Sirt6-dependent peptide deacetylation, Fluor de Lys. As to conditions: Fig. 3A.
Assay [7] has as its target T2, Sirt2. The assay is described as follows: Sirt2 deacetylation Activity Assay Kit. To be noted: time course, Fig. 3.
The next assay has as its target T5, Sirt5 (Homo sapiens, UniProt Q9NXA8).
T5 sequence (Q9NXA8 37-310): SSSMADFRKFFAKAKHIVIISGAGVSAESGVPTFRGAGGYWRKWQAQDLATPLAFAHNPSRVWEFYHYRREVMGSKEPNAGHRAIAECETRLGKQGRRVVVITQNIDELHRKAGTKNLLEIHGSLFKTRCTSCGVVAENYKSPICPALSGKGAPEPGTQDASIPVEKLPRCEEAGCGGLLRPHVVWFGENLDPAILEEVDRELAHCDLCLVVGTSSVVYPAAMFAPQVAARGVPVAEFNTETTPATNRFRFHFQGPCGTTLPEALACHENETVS
The assay is described as follows: Fluorogenic Sirt5 Assay Kit. Format: biochemical. To be noted: 100 μM compounds, 37 °C 30 min.

The target in assay [8] is T3, Sirt1. The assay is described as follows: Sirt1 deacetylation Activity Assay Kit. To be noted: time course, Fig. 3.

T4 sequence (Q8N6T7 whole entry): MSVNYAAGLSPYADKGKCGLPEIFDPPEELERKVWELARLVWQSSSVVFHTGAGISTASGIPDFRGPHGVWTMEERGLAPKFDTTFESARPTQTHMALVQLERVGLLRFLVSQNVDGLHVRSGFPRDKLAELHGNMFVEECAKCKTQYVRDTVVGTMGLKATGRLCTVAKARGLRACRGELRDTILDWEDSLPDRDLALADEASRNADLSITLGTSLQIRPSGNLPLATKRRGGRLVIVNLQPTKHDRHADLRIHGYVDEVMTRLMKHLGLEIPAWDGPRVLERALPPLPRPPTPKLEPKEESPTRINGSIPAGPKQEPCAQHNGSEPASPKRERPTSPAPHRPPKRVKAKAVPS

With `c1cncc(C2Nc3ccccc3-n3cccc32)c1` (stereo not drawn) [UBCS039, reference compound], on Sirt3 [1], the “effect on basal Sirt3 deacetylation activity” value is “no obvious effects”. Further, in the assay with BV2 cells, the “LPS-induced expression of IL-1β” value was “strongly inhibited”, the “LPS-induced expression of IL-6” value is on record as “strongly inhibited”, the “LPS-induced expression of MCP-1” value is “strongly inhibited” and the “LPS-induced expression of TNFα” value is “strongly inhibited”. Besides, the “effect on basal Sirt2 deacetylation activity” value at Sirt2 [2] is reported as “no obvious effects”. Also, the “effect on basal Sirt1 deacetylation activity” value on Sirt1 [3] is given as “no obvious effects”.
Take `CN(C)CCN1CCN(c2ncccc2C2Nc3ccccc3-n3cccc32)CC1` (stereo not drawn) [Compound 38, 2-(4-(3-(4,5-Dihydropyrrolo[1,2-a]quinoxalin-4-yl)pyridin-2-yl)piperazin-1-yl)-N,N-dimethylethan-1-amine]: the “acetylation of H3K9 in the nucleosome test” value at Sirt6 [4] was “significantly decreased”. Moreover, the “effect on Sirt3 deacetylation activity” value on Sirt3 [5] is given as “no significant effects”. The “effect on Sirt6 activity (time course)” value at Sirt6 [6] is on record as “specifically promoted”. Besides, the “effect on Sirt2 deacetylation activity” value at Sirt2 [7] was “no significant effects”. Further, in the assay on BV2 cells, the ICAM-1 induction result was “slight inhibition”, the “LPS-induced expression of IL-1β” value is recorded as “strongly inhibited”, the “LPS-induced expression of IL-6” value is “strongly inhibited” and the “LPS-induced expression of MCP-1” value is “strongly inhibited”. In addition, the “LPS-induced expression of TNFα” value in the assay with BV2 cells is listed as “strongly inhibited”. Also, the “effect on Sirt5 desuccinylation activity” value at Sirt5 is “no significant effects”. Besides, the “effect on Sirt1 deacetylation activity” value on Sirt1 [8] is listed as “no significant effects”.
